SMILES strings stand for the structures. pIC50: −log10 of the molar value.

For the experiment, the system named is Osteoclast precursor cells. Put plainly: Osteoclast differentiation assay. Type of experiment: cell-based. How it is done:
Further, an osteoclast differentiation assay is used to assess the efficacy of Fms inhibitors for treating bone disease such as osteoarthritis. On day 0, Osteoclast Medium BulletKit (Lonza catalog # PT-8001, containing Media, FBS, L-Glutamine, PenStrep, RANKL, and M-CSF) media is thawed and the FBS, L-glutamine and PenStrep from the kit is added to 100 mL of Osteoclast Precursor Basal medium to provide the Osteoclast Precursor Growth Medium (OPGM). This is warmed to 37° C. Osteoclast precursor cells (Lonza catalog #2T-110) frozen in cryovial are warmed to 37° C. and transferred to a 50 mL conical tube. The cryovial is rinsed with OPGM and added dropwise to the conical tube of cells with swirling, then the volume is adjusted to 20-30 mL with addition of OPGM. The cells are centrifuged at 200×g for 15 minutes at room temperature and all but approximately 3 mL of supernatant is removed to a new conical tube. The cells are suspended in the remaining supernatant and the volume is adjusted to 10-15 mL with OPGM added dropwise with swirling. The cells are centrifuged at 200×g for 15 minutes at room temperature and all but approximately 1 mL of supernatant is removed. The cells are resuspended in the remaining supernatant, counted, and the volume adjusted with an appropriate amount of OPGM to provide approximately 1×10^5 cells/mL. A 0.1 mL aliquot of cells is added to each well of a 96-well plate. Compound to be tested is prepared in DMSO for plating at a high concentration of 2.5 mM, with 8 point 1:3 serial dilutions. A 1 μL aliquot of each compound dilution is added to a 96 well v-bottom polypropylene plate and 0.124 mL of OPGM is added to the compound. Then 50 μL of the compound in OPGM is added to the osteoclast precursor cells in 96-well plate (providing highest test concentration of 5 μM). RANKL (2 μg) from the BulletKit is reconstituted in 1 mL of OPGM, then vortexed and centrifuged briefly. A 792 μL aliquot of RANKL is added to 6 mL of OPGM and 50 μL is added to low control wells. Then 76.6 μL M-CSF ([…]) from the BulletKit is added to the remaining 5.8 mL of OPGM/RANKL solution (4×RANKL/M-CSF/OPGM). A 50 μL aliquot of this is added to the remaining wells, and the remainder is stored at 4° C. for later use. The plate is incubated at 37° C. for 6 days, then the remaining OPGM/RANKL/M-CSF solution is warmed to 37° C. The remaining approximately 198 μL is combined with 6 mL of OPGM. The media is aspirated from the osteoclast wells and 100 μL of RANKL/OPGM is added to the low controls. The remaining RANKL/OPGM is combined with the approximately 18.5 μL of remaining M-CSF. The remaining 4×RANKL/M-CSF/OPGM from day 0 is diluted to 1× and combined with the freshly prepared solution. A 0.1 mL aliquot of this is added to each osteoclast well and incubated for 37° C. for 1 day. The Acid Phosphatase kit (Cayman Chemical catalog #10008051) is warmed to room temperature. The assay buffer is diluted 5 mL with 45 mL of water. For each plate, two substrate tablets are dissolved in 4.5 mL of the assay buffer, mixing by vortex to break up the tablet. Stop solution is diluted 12 mL with 36 mL of water. In a tissue culture hood, 20 μL of each osteoclast well supernatant is transferred to a 96 well plate. A 30 μL aliquot of the substrate solution is added to each well and incubated at 37° C. for 20 minutes, then added […] stop solution to each well. The absorbance of each well is read at 405 nm on Safire plate reader. The absorbance reading is plotted vs. concentration to provide the IC50 for each compound.
As to `COc1cnc2[nH]cc(Cc3cnc(NCc4ccc(C(F)(F)F)nc4)c(F)c3)c2c1` [Compound P-2147, [3-Fluoro-5-(5-methoxy-1H-pyrrolo[2,3-b]pyridin-3-ylmethyl)-pyridin-2-yl]-(6-trifluoromethyl-pyridin-3-ylmethyl)-amine], the pIC50 (as a rule, −log10 of the IC50, conventionally taken in molar units) was over 7.00. To `COc1ccc(CNc2ncc(Cc3c[nH]c4ncc(C)cc34)cc2C)cn1` [Compound P-1554, (6-Methoxy-pyridin-3-ylmethyl)-[3-methyl-5-(5-methyl-1H-pyrrolo[2,3-b]pyridin-3-ylmethyl)-pyridin-2-yl]-amine] belongs over 7.00; to `COc1ncc(F)cc1CNc1ncc(Cc2c[nH]c3ncc(C)cc23)cn1` [Compound P-2061, (5-Fluoro-2-methoxy-pyridin-3-ylmethyl)-[5-(5-methyl-1H-pyrrolo[2,3-b]pyridin-3-ylmethyl)-pyrimidin-2-yl]-amine], over 7.00; to `Clc1cnc2[nH]cc(Cc3ccc(NCc4ccc(Cl)nc4)nc3)c2c1` [Compound P-2003, (6-Chloro-pyridin-3-ylmethyl)-[5-(5-chloro-1H-pyrrolo[2,3-b]pyridin-3-ylmethyl)-pyridin-2-yl]-amine], over 7.00. With `COc1ccc(CNc2ncc(Cc3c[nH]c4ncc(C)cc34)cn2)cn1` [Compound P-2057, (6-Methoxy-pyridin-3-ylmethyl)-[5-(5-methyl-1H-pyrrolo[2,3-b]pyridin-3-ylmethyl)-pyrimidin-2-yl]-amine] the figure was over 7.00; with `COc1ccc(CNc2ncc(Cc3c[nH]c4ncc(Cl)cc34)cn2)cn1` [Compound P-2038, [5-(5-Chloro-1H-pyrrolo[2,3-b]pyridin-3-ylmethyl)-pyrimidin-2-yl]-(6-methoxy-pyridin-3-ylmethyl)-amine], over 7.00; with `Fc1cncc(CNc2ccc(Cc3c[nH]c4ncc(Cl)cc34)c(F)n2)c1` [Compound P-2001, [5-(5-Chloro-1H-pyrrolo[2,3-b]pyridin-3-ylmethyl)-6-fluoro-pyridin-2-yl]-(5-fluoro-pyridin-3-ylmethyl)-amine], over 7.00.

The molecule `COc1ncc(CNc2ccc(Cc3c[nH]c4ncc(C)cc34)c(F)n2)cc1F` [Compound P-2048, (5-Fluoro-6-methoxy-pyridin-3-ylmethyl)-[6-fluoro-5-(5-methyl-1H-pyrrolo[2,3-b]pyridin-3-ylmethyl)-pyridin-2-yl]-amine] showed a pIC50 of over 7.00. Molecule `COc1ncc(F)cc1CNc1ncc(Cc2c[nH]c3ncc(Cl)cc23)cn1` [Compound P-2064, [5-(5-Chloro-1H-pyrrolo[2,3-b]pyridin-3-ylmethyl)-pyrimidin-2-yl]-(5-fluoro-2-methoxy-pyridin-3-ylmethyl)-amine] gave a negative-log IC50 (pIC50) of over 7.00. To `COc1cnc2[nH]cc(Cc3ccc(NCc4ccc(OC)nc4)nc3F)c2c1` [Compound P-2030, [6-Fluoro-5-(5-methoxy-1H-pyrrolo[2,3-b]pyridin-3-ylmethyl)-pyridin-2-yl]-(6-methoxy-pyridin-3-ylmethyl)-amine] belongs over 7.00.

On to `COc1ncccc1CNc1ccc(Cc2c[nH]c3ncccc23)c(F)n1` [Compound P-2045, [6-Fluoro-5-(1H-pyrrolo[2,3-b]pyridin-3-ylmethyl)-pyridin-2-yl]-(2-methoxy-pyridin-3-ylmethyl)-amine], for which the pIC50 is over 7.00. To `Cc1cnc2[nH]cc(Cc3ccc(NCc4ccc(C(F)(F)F)nc4)nc3F)c2c1` [Compound P-2031, [6-Fluoro-5-(5-methyl-1H-pyrrolo[2,3-b]pyridin-3-ylmethyl)-pyridin-2-yl]-(6-trifluoromethyl-pyridin-3-ylmethyl)-amine] belongs over 7.00; to `Cc1cnc2[nH]cc(Cc3ccc(NCc4cnccc4C(F)(F)F)nc3)c2c1` [Compound P-2070, [5-(5-Methyl-1H-pyrrolo[2,3-b]pyridin-3-ylmethyl)-pyridin-2-yl]-(4-trifluoromethyl-pyridin-3-ylmethyl)-amine], over 7.00; to `Cc1cnc2[nH]cc(Cc3ccc(NCc4ccc(C(F)(F)F)nc4)nc3)c2c1` [Compound P-2019, [5-(5-Methyl-1H-pyrrolo[2,3-b]pyridin-3-ylmethyl)-pyridin-2-yl]-(6-trifluoromethyl-pyridin-3-ylmethyl)-amine], over 7.00. With `COc1ccc(CNc2ccc(Cc3c[nH]c4ncc(C)cc34)c(F)n2)cn1` [Compound P-2029, [6-Fluoro-5-(5-methyl-1H-pyrrolo[2,3-b]pyridin-3-ylmethyl)-pyridin-2-yl]-(6-methoxy-pyridin-3-ylmethyl)-amine] the figure was over 7.00; with `COc1ncc(F)cc1CNc1ccc(Cc2c[nH]c3ncc(C)cc23)c(F)n1` [Compound P-2049, (5-Fluoro-2-methoxy-pyridin-3-ylmethyl)-[6-fluoro-5-(5-methyl-1H-pyrrolo[2,3-b]pyridin-3-ylmethyl)-pyridin-2-yl]-amine], over 7.00; with `COc1cnc2[nH]cc(Cc3ccc(NCc4ccc(Cl)cc4)nc3F)c2c1` [Compound P-2032, (4-Chloro-benzyl)-[6-fluoro-5-(5-methoxy-1H-pyrrolo[2,3-b]pyridin-3-ylmethyl)-pyridin-2-yl]-amine], over 7.00.

As to `Cn1cc(F)cc(CNc2ncc(Cc3c[nH]c4ncc(Cl)cc34)cn2)c1=O` [Compound P-2157, 3-{[5-(5-Chloro-1H-pyrrolo[2,3-b]pyridin-3-ylmethyl)-pyrimidin-2-ylamino]-methyl}-5-fluoro-1-methyl-1H-pyridin-2-one], the negative logarithm of the IC50 (pIC50) is over 7.00.

`COc1ncc(F)cc1CNc1ccc(Cc2c[nH]c3ncc(C#N)cc23)c(F)n1` [Compound P-2193, 3-{2-Fluoro-6-[(5-fluoro-2-methoxy-pyridin-3-ylmethyl)-amino]-pyridin-3-ylmethyl}-1H-pyrrolo[2,3-b]pyridine-5-carbonitrile] had a pIC50 of over 7.00. Consider `COc1cnc2[nH]cc(Cc3ccc(NCc4cncc(F)c4)nc3F)c2c1` [Compound P-2028, [6-Fluoro-5-(5-methoxy-1H-pyrrolo[2,3-b]pyridin-3-ylmethyl)-pyridin-2-yl]-(5-fluoro-pyridin-3-ylmethyl)-amine], for which the pIC50 is over 7.00.

For the molecule `Fc1ccc(CNc2ccc(Cc3c[nH]c4ncc(Cl)cc34)cn2)cn1` [Compound P-2004, [5-(5-Chloro-1H-pyrrolo[2,3-b]pyridin-3-ylmethyl)-pyridin-2-yl]-(6-fluoro-pyridin-3-ylmethyl)-amine], the pIC50 is over 7.00. Molecule `COc1ccnc2[nH]cc(Cc3ccc(NCc4ccc(Cl)cc4)nc3F)c12` [Compound P-2037, (4-Chloro-benzyl)-[6-fluoro-5-(4-methoxy-1H-pyrrolo[2,3-b]pyridin-3-ylmethyl)-pyridin-2-yl]-amine] showed a negative logarithm of the IC50 (pIC50) of over 7.00.

On to `Fc1cncc(CNc2ncc(Cc3c[nH]c4ncc(Cl)cc34)cn2)c1` [Compound P-2176, [5-(5-Chloro-1H-pyrrolo[2,3-b]pyridin-3-ylmethyl)-pyrimidin-2-yl]-(5-fluoro-pyridin-3-ylmethyl)-amine], for which the pIC50 is over 7.00. With `Cc1cnc2[nH]cc(Cc3cnc(NCc4ccc(C(F)(F)F)nc4)c(F)c3)c2c1` [Compound P-2146, [3-Fluoro-5-(5-methyl-1H-pyrrolo[2,3-b]pyridin-3-ylmethyl)-pyridin-2-yl]-(6-trifluoromethyl-pyridin-3-ylmethyl)-amine] the figure was over 7.00; with `COc1ncccc1CNc1ccc(Cc2c[nH]c3ncc(C)cc23)c(F)n1` [Compound P-2052, [6-Fluoro-5-(5-methyl-1H-pyrrolo[2,3-b]pyridin-3-ylmethyl)-pyridin-2-yl]-(2-methoxy-pyridin-3-ylmethyl)-amine], over 7.00.

For the origin of these results see patent US10123998B2, “Kinase modulation, and indications therefor” (Plexxikon Inc., priority 2012, dated 2018).
